We go through seven compounds from PubChem BioAssay AID1259407 (Chemical Carcinogenesis Research Information System (CCRIS), 2018).

The data set deals with CCRIS mutagenicity, Ames/micronucleus/aberration tests. In words: CCRIS mutagenicity studies.
[1] abbreviates: Test System: AMES SALMONELLA TYPHIMURIUM, Strain/Indicator: TA100, Metabolic Activation: NONE, Method: PREINCUBATION
Where [2] appears, read: Test System: AMES SALMONELLA TYPHIMURIUM, Strain/Indicator: TA98, Metabolic Activation: NONE, Method: PREINCUBATION
Where [3] appears, read: Test System: AMES SALMONELLA TYPHIMURIUM, Strain/Indicator: TA1535, Metabolic Activation: NONE, Method: PREINCUBATION

Structures are written as SMILES. Calls of active or inactive are those of the source. No rule for the calls is given here.

With `C[C@H](CN=[N+]=[N-])c1ccccc1`, the mutagenic call is, setting by setting: under setting [1], “inactive; negative”; (Test System: AMES SALMONELLA TYPHIMURIUM, Strain/Indicator: TA100, Metabolic Activation: RAT, LIVER, S-9, PCB, Method: PREINCUBATION) “active; positive”.
On to `CCCCCCCCCCCCCCCCCC(=O)NCCCC[C@@H](NC(=O)CC[C@@H](NC(=O)[C@H](C)NC(=O)[C@@H](C)O[C@H]1[C@H](O)[C@@H](CO)OC(O)[C@@H]1NC(C)=O)C(N)=O)C(=O)O` (stereo partly drawn), for which the mutagenic call by setting is: under setting [2], “inactive; negative”; (Test System: AMES SALMONELLA TYPHIMURIUM, Strain/Indicator: TA98, Metabolic Activation: RAT, LIVER, S-9, KC-500, Method: PREINCUBATION) “inactive; negative”; under setting [1], “inactive; negative”; (Test System: AMES SALMONELLA TYPHIMURIUM, Strain/Indicator: TA100, Metabolic Activation: RAT, LIVER, S-9, KC-500, Method: PREINCUBATION) “inactive; negative”; under setting [3], “inactive; negative”; (Test System: AMES SALMONELLA TYPHIMURIUM, Strain/Indicator: TA1535, Metabolic Activation: RAT, LIVER, S-9, KC-500, Method: PREINCUBATION) “inactive; negative”. The mutagenic call runs as follows: (Test System: AMES SALMONELLA TYPHIMURIUM, Strain/Indicator: TA1537, Metabolic Activation: NONE, Method: PREINCUBATION) “inactive; negative”; (Test System: AMES SALMONELLA TYPHIMURIUM, Strain/Indicator: TA1537, Metabolic Activation: RAT, LIVER, S-9, KC-500, Method: PREINCUBATION) “inactive; negative”; (Test System: AMES SALMONELLA TYPHIMURIUM, Strain/Indicator: TA1538, Metabolic Activation: NONE, Method: PREINCUBATION) “inactive; negative”; (Test System: AMES SALMONELLA TYPHIMURIUM, Strain/Indicator: TA1538, Metabolic Activation: RAT, LIVER, S-9, KC-500, Method: PREINCUBATION) “inactive; negative”; (Test System: E. COLI, Strain/Indicator: WP2 UVRA, Metabolic Activation: NONE, Method: PREINCUBATION) “inactive; negative”; (Test System: E. COLI, Strain/Indicator: WP2 UVRA, Metabolic Activation: RAT, LIVER, S-9, KC-500, Method: PREINCUBATION) “inactive; negative”.
Take `N[C@@H](CCC(=O)N[C@@H](CS/C(Cl)=C(\Cl)C(Cl)=C(Cl)Cl)C(=O)NCC(=O)O)C(=O)O`: the mutagenic call by setting is: under setting [1], “active; positive”; (Test System: AMES SALMONELLA TYPHIMURIUM, Strain/Indicator: TA100, Metabolic Activation: NONE, Method: STANDARD PLATE) “inactive; negative”; (Test System: AMES SALMONELLA TYPHIMURIUM, Strain/Indicator: TA100, Metabolic Activation: RAT, KIDNEY, CYTOSOL, Method: PREINCUBATION) “active; positive”; (Test System: AMES SALMONELLA TYPHIMURIUM, Strain/Indicator: TA100, Metabolic Activation: RAT, KIDNEY, MICROSOMES, Method: PREINCUBATION) “active; positive”; (Test System: AMES SALMONELLA TYPHIMURIUM, Strain/Indicator: TA100, Metabolic Activation: RAT, KIDNEY, MITOCHONDRIA, Method: PREINCUBATION) “active; positive”; (Test System: AMES SALMONELLA TYPHIMURIUM, Strain/Indicator: TA100, Metabolic Activation: RAT, KIDNEY, S-9, AROCLOR 1254, Method: STANDARD PLATE) “active; positive”.
For `CC(C)(O)C#N`, the mutagenic call (Test System: AMES SALMONELLA TYPHIMURIUM, Strain/Indicator: TA97, Metabolic Activation: HAMSTER, LIVER, S-9, AROCLOR 1254 (10 OR 30%), Method: PREINCUBATION) was “inactive; negative”; the mutagenic call (Test System: AMES SALMONELLA TYPHIMURIUM, Strain/Indicator: TA97, Metabolic Activation: NONE, Method: PREINCUBATION) was “inactive; negative”; the mutagenic call (Test System: AMES SALMONELLA TYPHIMURIUM, Strain/Indicator: TA97, Metabolic Activation: RAT, LIVER, S-9, AROCLOR 1254 (10%), Method: PREINCUBATION) was “inactive; negative”; the mutagenic call (Test System: AMES SALMONELLA TYPHIMURIUM, Strain/Indicator: TA97, Metabolic Activation: RAT, LIVER, S-9, AROCLOR 1254 (30%), Method: PREINCUBATION) was “inactive; negative”; the mutagenic call (Test System: AMES SALMONELLA TYPHIMURIUM, Strain/Indicator: TA98, Metabolic Activation: HAMSTER, LIVER, S-9, AROCLOR 1254 (10 OR 30%), Method: PREINCUBATION) is “inactive; negative”; the mutagenic call under setting [2] is “inactive; negative”. The mutagenic call reads like this: (Test System: AMES SALMONELLA TYPHIMURIUM, Strain/Indicator: TA98, Metabolic Activation: RAT, LIVER, S-9, AROCLOR 1254 (10%), Method: PREINCUBATION) “inactive; negative”; (Test System: AMES SALMONELLA TYPHIMURIUM, Strain/Indicator: TA98, Metabolic Activation: RAT, LIVER, S-9, AROCLOR 1254 (30%), Method: PREINCUBATION) “inactive; negative”; (Test System: AMES SALMONELLA TYPHIMURIUM, Strain/Indicator: TA100, Metabolic Activation: HAMSTER, LIVER, S-9, AROCLOR 1254 (10 OR 30%), Method: PREINCUBATION) “inactive; negative”; under setting [1], “inactive; negative”; (Test System: AMES SALMONELLA TYPHIMURIUM, Strain/Indicator: TA100, Metabolic Activation: RAT, LIVER, S-9, AROCLOR 1254 (10%), Method: PREINCUBATION) “inactive; negative”; (Test System: AMES SALMONELLA TYPHIMURIUM, Strain/Indicator: TA100, Metabolic Activation: RAT, LIVER, S-9, AROCLOR 1254 (30%), Method: PREINCUBATION) “inactive; negative”. Besides, the mutagenic call was “inactive; negative” (Test System: AMES SALMONELLA TYPHIMURIUM, Strain/Indicator: TA1535, Metabolic Activation: HAMSTER, LIVER, S-9, AROCLOR 1254 (10 OR 30%), Method: PREINCUBATION); “inactive; negative” under setting [3]; “inactive; negative” (Test System: AMES SALMONELLA TYPHIMURIUM, Strain/Indicator: TA1535, Metabolic Activation: RAT, LIVER, S-9, AROCLOR 1254 (10%), Method: PREINCUBATION); “inactive; negative” (Test System: AMES SALMONELLA TYPHIMURIUM, Strain/Indicator: TA1535, Metabolic Activation: RAT, LIVER, S-9, AROCLOR 1254 (30%), Method: PREINCUBATION).
As to `Cc1ccc(NC2OC[C@@H](O)[C@@H](O)[C@@H]2O)cc1` (stereo partly drawn), under “Test System: AMES SALMONELLA TYPHIMURIUM, Strain/Indicator: TA100, Metabolic Activation: NONE, Method: LIQUID INCUBATION”, the mutagenic call was “active; positive”.
`OCc1c2ccccc2cc2c1ccc1ccccc12`: the mutagenic call (Test System: AMES SALMONELLA TYPHIMURIUM, Strain/Indicator: TA98, Metabolic Activation: NONE, Method: STANDARD PLATE) was “active; positive”; the mutagenic call (Test System: AMES SALMONELLA TYPHIMURIUM, Strain/Indicator: TA98, Metabolic Activation: RAT, LIVER, S-9, 3'-PHOSPHOADENOSINE 5'-PHOSPHOSULFATE GENERATING SYSTEM, Method: PREINCUBATION) is “active; positive”; the mutagenic call (Test System: AMES SALMONELLA TYPHIMURIUM, Strain/Indicator: TA98, Metabolic Activation: RAT, LIVER, S-9, NADPH GENERATING SYSTEM, Method: PREINCUBATION) is “active; positive”; the mutagenic call (Test System: AMES SALMONELLA TYPHIMURIUM, Strain/Indicator: TA98, Metabolic Activation: RAT, LIVER, S-105, 3'-PHOSPHOADENOSINE 5'-PHOSPHOSULFATE GENERATING SYSTEM, Method: PREINCUBATION) was “active; positive”.
For `Fc1cccc2ncccc12`, the mutagenic call is “active; positive, described as marginally clastogenic at non toxic doses. (information d” (End Point: In vitro chromosomal aberrations, Test System: Chinese hamster lung fibroblast cells (CHL/IU), Metabolic Activation: Rat, liver, S-9); “active; positive (information derived from a figure)” (End Point: In vitro micronucleus, Test System: Chinese hamster lung fibroblast cells (CHL/IU), Metabolic Activation: Rat, liver, S-9); “active; positive” (Test System: AMES SALMONELLA TYPHIMURIUM, Strain/Indicator: TA100, Metabolic Activation: RAT LIVER S-9, PHENOBARBITAL AND 5,6-BENZOFLAVONE, Method: PREINCUBATION); “active; positive” (Test System: AMES SALMONELLA TYPHIMURIUM, Strain/Indicator: TA100, Metabolic Activation: RAT, LIVER, S-9, AROCLOR 1254, Method: PREINCUBATION); “active; positive” (Test System: AMES SALMONELLA TYPHIMURIUM, Strain/Indicator: TA100, Metabolic Activation: RAT, LIVER, S-9, PHENOBARBITAL AND 5,6-BENZOFLAVONE, Method: PREINCUBATION); “active; positive” (Test System: AMES SALMONELLA TYPHIMURIUM, Strain/Indicator: TA100, Metabolic Activation: RAT, LIVER, S-9, PHENOBARBITAL AND 5,6-NAPHTHOFLAVONE, Method: PREINCUBATION). The mutagenic call (Test System: UDS RODENT HEPATOCYTES, Strain/Indicator: THY INCORP (NON-S-PHASE), Metabolic Activation: NONE, Method: AUTORADIOGRAPHY) was “active; positive”.
